What was measured:
[1] = biological target: recombinant BACE1 protein (Homo sapiens, UniProt P56817); test: BACE1 biochemical FRET based assay; conditions: 450 min at room temperature, 20 μM substrate, pH 5.0
Source text: (§1) This assay is a Fluorescence Resonance Energy Transfer Assay (FRET) based assay. The substrate for this assay is an APP derived 13 amino acids peptide that contains the ‘Swedish’ Lys-Met/Asn-Leu mutation of the amyloid precursor protein (APP) beta-secretase cleavage site. This substrate also contains two fluorophores: (7-methoxycoumarin-4-yl) acetic acid (Mca) is a fluorescent donor with excitation wavelength at 320 nm and emission at 405 nm and 2,4-Dinitrophenyl (Dnp) is a proprietary quencher acceptor. […] Upon cleavage by BACE1, the fluorophore Mca is separated from the quenching group Dnp, restoring the full fluorescence yield of the donor. The increase in fluorescence is linearly related to the rate of proteolysis.
Briefly in a 384-well format recombinant BACE1 protein in a final concentration of 0.04 μg/ml is incubated for 450 minutes at room temperature with 20 μM substrate in incubation buffer (50 mM Citrate buffer pH 5.0, 0.05% PEG) in the presence of compound or DMSO. Next the amount of proteolysis is directly measured by fluorescence measurement (excitation at 320 nm and emission at 405 nm) at different incubation times (0, 30, 60, 90, 120 and 450 min). For every experiment a time curve (every 30 min between 0 min and 120 min) is used to determine the time where we find the lowest basal signal of the high control. The signal at this time (Tx) is used to subtract from the signal at 450 min. Results are expressed in RFU, as difference between T450 and Tx.
(§2) A best-fit curve is fitted by a minimum sum of squares method to the plot of % Controlmin versus compound concentration. From this an IC50 value (inhibitory concentration causing 50% inhibition of activity) can be obtained.

[2] = system: Abeta 1-42 produced and secreted by human neuroblastoma SKNBE2 cells expressing wild type hAPP695; test: Cellular αLisa assay in SKNBE2 cells, Abeta 1-42; type: cell-based; conditions: 18 hours incubation, read-out: Cellular αLisa assay in SKNBE2 cells Abeta 42 pIC50 (converted)
Method: In two αLisa assays the levels of Abeta total and Abeta 1-42 produced and secreted into the medium of human neuroblastoma SKNBE2 cells are quantified. The assay is based on the human neuroblastoma SKNBE2 expressing the wild type Amyloid Precursor Protein (hAPP695). The compounds are diluted and added to these cells, incubated for 18 hours and then measurements of Abeta 1-42 and Abeta total are taken. Abeta total and Abeta 1-42 are measured by sandwich αLisa. αLisa is a sandwich assay using biotinylated antibody AbN/25 attached to streptavidin coated beads and antibody Ab4G8 or cAb42/26 conjugated acceptor beads for the detection of Abeta total and Abeta 1-42 respectively. In the presence of Abeta total or Abeta 1-42, the beads come into close proximity. The excitation of the donor beads provokes the release of singlet oxygen molecules that trigger a cascade of energy transfer in the acceptor beads, resulting in light emission. Light emission is measured after 1 hour incubation (excitation at […] and emission at 615 nm).
as §2

[3] = biological target: T1, recombinant BACE2 protein (Homo sapiens, UniProt Q9Y5Z0); test: BACE2 biochemical FRET based assay; conditions: 450 min at room temperature, 10 μM substrate, pH 5.0
T1 sequence (Q9Y5Z0 63-518): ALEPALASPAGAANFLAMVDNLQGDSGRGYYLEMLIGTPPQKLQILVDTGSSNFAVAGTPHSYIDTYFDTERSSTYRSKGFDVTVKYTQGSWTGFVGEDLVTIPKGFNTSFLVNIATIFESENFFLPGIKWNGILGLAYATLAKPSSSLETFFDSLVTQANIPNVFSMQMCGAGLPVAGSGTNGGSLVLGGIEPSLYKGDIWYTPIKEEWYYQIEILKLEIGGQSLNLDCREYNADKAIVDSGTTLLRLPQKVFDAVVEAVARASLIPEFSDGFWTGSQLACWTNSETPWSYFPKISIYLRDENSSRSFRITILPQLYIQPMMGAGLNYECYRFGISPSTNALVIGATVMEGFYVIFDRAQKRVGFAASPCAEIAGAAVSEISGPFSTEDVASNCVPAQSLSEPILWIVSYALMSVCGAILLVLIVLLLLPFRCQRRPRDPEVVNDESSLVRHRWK
Source text: as §1, with “assay” for “assay is an APP derived 13 amino acids peptide that”, “the beta-secretase,” for “BACE1,”
Briefly in a 384-well format recombinant BACE2 protein in a final concentration of 0.4 μg/ml is incubated for 450 minutes at room temperature with 10 μM substrate in incubation buffer (50 mM Citrate buffer pH 5.0, 0.05% PEG, no DMSO) in the absence or presence of compound. Next the amount of proteolysis is directly measured by fluorescence measurement at T=0 and T=450 (excitation at 320 nm and emission at 405 nm). Results are expressed in RFU (Relative Fluorescence Units), as difference between T450 and TO.
as §2

β-secretase I (BACE1) = β-secretase I (BACE1) (Homo sapiens, UniProt P56817); test: Automated (CyclOps) biochemical assay BACE1; conditions: 37 °C, 60 min, pH 5.0; read-out: Automated assay BACE1 pIC50 (converted)
Method: (§3) Unless otherwise indicated all biochemicals were purchased from Sigma-Aldrich Chemical Company, Poole, Dorset, U.K. and non-aqueous solvents, of analytical or higher grade, were purchased from ThermoFisher Scientific, Loughborough, U.K. MilliQ water (Elix 5 & MilliQ Gradient; Merck Millipore) was used as the base aqueous solvent to make up the biological buffers. Base assay buffer was prepared by adding a 50 mM solution of citric acid (1.00244; Merck Biosciences) to stirring solution of 50 mM trisodium citrate (1.06448; Merck Biosciences) until a final pH of 5.0 was achieved. […] All assays were routinely carried out in 384-well assay plates (Costar 4514; Corning Life Sciences) and incubated at 37±1° C. for 60 min. prior to reading the endpoint fluorescence intensity. The (7-methoxyl coumarin-4-yl)acetic acid based substrate 0-secretase substrate VI (M2465; Bachem) was prepared as a 1 mM stock in 100% DMSO (D/4121/PB08; ThermoFisher). Assay buffer was prepared by adding DMSO to base buffer to a final concentration of 1% (vol./vol.). β-secretase I (18.64 μM; “BACE1”) and β-secretase II (4.65 μM; “BACE2”) were obtained from Janssen Pharmaceutica, Beerse, Belgium and were stored as frozen aliquots (˜20 μl) and thawed as required.
(§4) The CyclOps bioassay module consisted of a fraction collection station, a reagent station, liquid handling robotics, plate store and an integrated plate reader (SpectraMAX Paradigm, TUNE cartridge, SoftMax Pro v 6.3; Molecular Devices). The fraction collection station composed of a 384 well collection plate (P-384-240SQ-C; Axygen, Union City, Calif., USA) mounted on a H-portal carriage (Festo AG & Co. KG, Esslingen, Germany), a syringe drive and a two-way six port injection valve fitted with a 200 μl loop (VICI AG International, Schenkon Switzerland). The output of the injection valve was addressable to all the positions of a 384 well collection plate. The reagent station consisted of hydraulically cooled (10-12° C.) aluminium segments; each manufactured to house a SBS microtiter plate footprint. Independent addressable reagent stations were housed within these sections. Where required, custom aluminium housings were used to accommodate standard laboratory plastic ware (e.g. Eppendorf tubes, Falcon tubes, etc.). As and when required the reagent reservoirs were covered and the lids contained holes through which the Teflon-coated probe could access solutions. The reagents present on the liquid handling system were: • Probe wash solution (˜150 ml; 33.3:33.3:33.3 water:propan-2-ol (P/7508/17; ThermoFisher):methanol (M/4058/17; ThermoFisher) contained in a covered reagent reservoir (390007; Porvair Sciences Ltd., Leatherhead, UK). • Assay buffer solution • HPLC grade water • 40 nM BACE1 diluted in base buffer contained in a 5 ml Eppendorf tube (0030 119.401; Eppendorf) • 400 nM BACE2 diluted in 25 mM tris (648311; Merck Biosciences, Nottingham, U.K.), pH 7.5 containing 100 mM sodium chloride and 20% glycerol (16374; USB Corp., Cleveland, Ohio, USA) contained in a 1.5 ml Eppendorf tube (0030 000.919; Eppendorf) • 1 mM substrate in 100% DMSO contained in a 1.5 ml Eppendorf tube (maintained at ambient temperature) • Two empty 1.5 ml Eppendorf tubes
(§5) The liquid handling system composed of a LISSY system (Zinsser Analytik GmbH, Frankfurt, Germany) equipped with gripper arm and single teflon-coated stainless steel probe. […]

β-secretase II (BACE2) = biological target: T2, β-secretase II (BACE2) (Homo sapiens, UniProt Q9Y5Z0); test: Automated (CyclOps) biochemical assay BACE2; conditions: 37 °C, 60 min, pH 5.0; read-out: Automated assay BACE2 pIC50 (converted)
T2 sequence (Q9Y5Z0 63-518): T1 sequence (Q9Y5Z0 63-518)
Method: as §3, §4, §5

Chain of β-secretase I (BACE1) (P56817 46-501): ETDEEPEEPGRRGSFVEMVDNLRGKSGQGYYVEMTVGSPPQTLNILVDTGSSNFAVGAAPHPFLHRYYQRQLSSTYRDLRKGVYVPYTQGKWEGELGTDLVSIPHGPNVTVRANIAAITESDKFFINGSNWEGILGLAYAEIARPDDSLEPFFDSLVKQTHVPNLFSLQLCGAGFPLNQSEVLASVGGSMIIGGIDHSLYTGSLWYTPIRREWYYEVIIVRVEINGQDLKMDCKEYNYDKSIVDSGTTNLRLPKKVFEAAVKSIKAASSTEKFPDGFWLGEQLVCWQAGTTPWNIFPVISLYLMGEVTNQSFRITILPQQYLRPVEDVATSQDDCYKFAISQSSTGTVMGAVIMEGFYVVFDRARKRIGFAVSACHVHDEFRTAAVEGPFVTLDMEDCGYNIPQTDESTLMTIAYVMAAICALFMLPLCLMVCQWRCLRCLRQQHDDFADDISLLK
Chain of recombinant BACE1 protein (P56817 46-501): as above

| SMILES | Biochemical FRET based assay pIC50 [1] | IC50 [2] [nM] | Biochemical FRET based assay pIC50 [3] | IC50 (β-secretase I (BACE1)) [nM] | IC50 (β-secretase II (BACE2)) [nM] |
| --- | --- | --- | --- | --- | --- |
| COc1ncc(CC2CCOCC2)c2c1C[C@]1(c3ccc(F)cc3F)N=C(N)SC[C@@H]1C2 [Compound 1] | 8.52 | 0.759 | 8.18 |  |  |
| COc1ncc(Cc2c(C)noc2C)c2c1C[C@]1(c3ccc(F)cc3F)N=C(N)SC[C@@H]1C2 [Compound 2] | 8.23 | 2.63 | 7.36 |  |  |
| COc1ncc(Cc2ccccc2C)c2c1C[C@]1(c3ccc(F)cc3F)N=C(N)SC[C@@H]1C2 [Compound 3] |  |  |  | 22.9 | 355 |
| COc1ncc(Cc2c(C)cccc2C)c2c1C[C@]1(c3ccc(F)cc3F)N=C(N)SC[C@@H]1C2 [Compound 9] | 7.99 | 42.7 | 6.56 |  |  |

The next lines start with the values.

| Biochemical FRET based assay pIC50 [1] | IC50 [2] [nM] | Biochemical FRET based assay pIC50 [3] | IC50 (β-secretase I (BACE1)) [nM] | IC50 (β-secretase II (BACE2)) [nM] | SMILES |
| --- | --- | --- | --- | --- | --- |
| 7.64 | 67.6 | 7.1 | 49 | 204 | COc1ccc(Cc2cnc(OC)c3c2C[C@H]2CSC(N)=N[C@@]2(c2ccc(F)cc2F)C3)cc1 [Compound 5] |
|  |  |  | 75.9 | 191 | COc1cccc(Cc2cnc(OC)c3c2C[C@H]2CSC(N)=N[C@@]2(c2ccc(F)cc2F)C3)c1 [Compound 6] |
|  |  |  | 61.7 | 110 | COc1ncc(Cc2cccc(Cl)c2)c2c1C[C@]1(c3ccc(F)cc3F)N=C(N)SC[C@@H]1C2 [Compound 7] |
|  |  |  | 195 | 219 | COc1cc(Cc2cnc(OC)c3c2C[C@H]2CSC(N)=N[C@@]2(c2ccc(F)cc2F)C3)cc(OC)c1 [Compound 8] |

Reference: patent US20210284659A1, “INHIBITORS OF BETA SECRETASE” (Janssen Pharmaceutica NV, priority 2017, published 2021)
